Laboratory results published in US20050026968A1, “Heterocyclic amides with anti-tuberculosis activity” (priority 2003, published 2005).
Converted amounts (≈) assume the structure as drawn. Like-named read-outs stand apart in the source and are kept apart here.

System: M. tuberculosis H37Ra
Assay: MIC against M. tuberculosis H37Ra, micro broth dilution in microtiter plates
[1] = Mycobacterium tuberculosis, H37RA, 168 h, read-out: TB MIC, Table 1, M. tuberculosis H37Ra, 7 days, MIC90 (>90% inhibition of growth)
[2] = Mycobacterium tuberculosis, H37RA, Table 4, M. tuberculosis H37Ra, MIC90
[3] = Mycobacterium tuberculosis, H37RA
[4] = Mycobacterium tuberculosis, H37RA, Table 5, M. tuberculosis H37Ra, MIC90
[5] = Table 5, M. tuberculosis H37Ra, MIC90

`COc1ccc(NC(=O)c2ccc([N+](=O)[O-])o2)cc1Cl` [Compound 1] was tested, and the “MIC against whole cells” value was 1.6 µg/mL (≈ 5.39 µM).

For `O=C(NC1CCCCC1)c1ccc([N+](=O)[O-])o1` [Compound 15, 5-Nitro-furan-2-carboxylic acid cyclohexylamide], the MIC [1] was 3.1 µg/mL (≈ 13 µM).

For `O=C(NC12CC3CC(CC(C3)C1)C2)c1ccc([N+](=O)[O-])o1` [Compound 16, 5-Nitro-furan-2-carboxylic acid adamantan-1-ylamide], the MIC [1] was 3.1 µg/mL (≈ 10.7 µM).

Work on `O=C(Nc1ccccc1)c1ccc([N+](=O)[O-])o1` [Compound 17, 5-Nitro-furan-2-carboxylic acid phenylamide] yielded an MIC [1] of 0.8 µg/mL (≈ 3.45 µM).

For `COc1ccc(CNC(=O)c2ccc([N+](=O)[O-])o2)cc1` [Compound 20, 5-Nitro-furan-2-carboxylic acid 4-methoxy-benzylamide], the MIC [1] was 0.1 µg/mL (≈ 0.362 µM).

`O=C(NCc1ccccc1Cl)c1ccc([N+](=O)[O-])o1` [Compound 21, 5-Nitro-furan-2-carboxylic acid 2-chloro-benzylamide] was tested, and the MIC [1] was 1.6 µg/mL (≈ 5.7 µM).

With `COc1cc(CNC(=O)c2ccc([N+](=O)[O-])o2)cc(OC)c1OC` [Compound 24, 5-Nitro-furan-2-carboxylic acid 3,4,5-trimethoxy-benzylamide] the MIC [1] was 0.8 µg/mL (≈ 2.38 µM).

`O=C(NC1CCc2ccccc21)c1ccc([N+](=O)[O-])o1` (centres unmarked) [Compound 26, 5-Nitro-furan-2-carboxylic acid indan-1-ylamide] gave an MIC [1] of 3.1 µg/mL (≈ 11.4 µM).

Compound `O=C(NCCc1ccccc1)c1ccc([N+](=O)[O-])o1` [Compound 27, 5-Nitro-furan-2-carboxylic acid phenethyl-amide] has an MIC [1] of 1.6 µg/mL (≈ 6.15 µM).

In the case of `COc1ccc(CNC(=O)c2ccc(Br)o2)cc1` [Compound 32, 5-Bromo-furan-2-carboxylic acid 4-methoxy-benzylamide], the MIC [1] is reported as 200 µg/mL (≈ 645 µM).

For `COc1cccc(NC(=O)c2ccc(S(=O)(=O)O)o2)c1` [Compound 34, 5-(3-Methoxy-phenylcarbamoyl)-furan-2-sulfonic acid], the MIC [1] was 200 µg/mL (≈ 673 µM).

With `O=C(Nc1cccc(O)c1)c1ccc([N+](=O)[O-])o1` [Compound 35, 5-Nitro-furan-2-carboxylic acid(3-hydroxy-phenyl)-amide] the MIC [1] was 1.6 µg/mL (≈ 6.45 µM).

For `COc1cccc(NC(=O)c2ccc([S+]([O-])c3ccccc3)o2)c1` (centres unmarked) [Compound 38, 5-Benzenesulfinyl-furan-2-carboxylic acid(3-methoxy-phenyl)-amide], the MIC [1] was 6.25 µg/mL (≈ 18.3 µM).

With `COc1cccc(NC(=O)c2ccc(S(=O)(=O)c3ccccc3)o2)c1` [Compound 39, 5-Benzenesulfonyl-furan-2-carboxylic acid(3-methoxy-phenyl)-amide] the MIC [1] was 6.25 µg/mL (≈ 17.5 µM).

For `CCOC(=O)c1ccc(C(=O)Nc2cccc(OC)c2)o1` [Compound 40, 5-(3-Methoxy-phenylcarbamoyl)-furan-2-carboxylic acid ethyl ester], the MIC [1] was 400 µg/mL (≈ 1380 µM).

Work on `CN(C(=O)c1ccc([N+](=O)[O-])o1)c1ccccc1` [Compound 41] yielded an MIC of 3.1 µg/mL (≈ 12.6 µM).

`O=C(Nc1cnccn1)c1ccc([N+](=O)[O-])o1` [Compound 48, 5-Nitro-furan-2-carboxylic acid pyrazin-2-ylamide] gave an MIC [1] of 6.25 µg/mL (≈ 26.7 µM).

`COc1ccccc1CNC(=O)c1ccc([N+](=O)[O-])o1` [Compound 52, 5-nitro-furan-2-carboxylic acid 2-methoxy-benzylamide] was tested, and the MIC [1] was 1.6 µg/mL (≈ 5.79 µM).

For `COc1cccc(CNC(=O)c2ccc([N+](=O)[O-])o2)c1OC` [Compound 53, 5-nitro-furan-2-carboxylic acid 2,3-dimethoxy-benzylamide], the MIC [1] was 1.2 µg/mL (≈ 3.92 µM).

`O=C(Nc1ccc(N2CCOCC2)cc1)c1ccc([N+](=O)[O-])o1` [Compound 54, 5-Nitro-furan-2-carboxylic acid(4-morpholin-4-yl-phenyl)-amide] gave an MIC [2] of 1.6 µg/mL (≈ 5.04 µM).

For `CN1CCN(c2ccc(NC(=O)c3ccc([N+](=O)[O-])o3)cc2)CC1` [Compound 55, 5-Nitro-furan-2-carboxylic acid[4-(4-methyl-piperazin-1-yl)-phenyl]-amide], the MIC [2] was 6.25 µg/mL (≈ 18.9 µM).

With `O=C(Nc1ccc(N2CCN(Cc3ccccc3)CC2)cc1)c1ccc([N+](=O)[O-])o1` [Compound 56, 5-Nitro-furan-2-carboxylic acid[4-(4-benzyl-piperazin-1-yl)-phenyl]-amide] the MIC [2] was 0.8 µg/mL (≈ 1.97 µM).

Work on `O=C(Nc1ccc(N2CCC(Cc3ccccc3)CC2)cc1)c1ccc([N+](=O)[O-])o1` [Compound 57, 5-Nitro-furan-2-carboxylic acid[4-(4-benzyl-piperidin-1-y1)-phenyl]-amide] yielded an MIC [2] of 3.1 µg/mL (≈ 7.65 µM).

`O=C(Nc1ccc(N2CCN(c3ccccn3)CC2)cc1)c1ccc([N+](=O)[O-])o1` [Compound 58, 5-Nitro-furan-2-carboxylic acid. [4-(4-pyridin-2-yl-piperazin-1-yl)-phenyl]-amide] was tested, and the MIC [2] was 0.4 to 0.8 µg/mL (≈ 1.02 to 2.03 µM).

Compound `O=C(Nc1cccc(N2CCOCC2)c1)c1ccc([N+](=O)[O-])o1` [Compound 59, 5-Nitro-furan-2-carboxylic acid(3-morpholin-4-yl-phenyl)-amide] has an MIC [2] of 3.1 µg/mL (≈ 9.77 µM).

With `CN1CCN(c2cccc(NC(=O)c3ccc([N+](=O)[O-])o3)c2)CC1` [Compound 60, 5-Nitro-furan-2-carboxylic acid[3-(4-methyl-piperazin-1-yl)-phenyl]-amide] the MIC [2] was 12.5 µg/mL (≈ 37.8 µM).

Compound `O=C(Nc1cccc(N2CCN(Cc3ccccc3)CC2)c1)c1ccc([N+](=O)[O-])o1` [Compound 61, 5-Nitro-furan-2-carboxylic acid[3-(4-benzyl-piperazin-1-yl)-phenyl]-amide] has an MIC [2] of 12.5 µg/mL (≈ 30.8 µM).

For `O=C(Nc1cccc(N2CCC(Cc3ccccc3)CC2)c1)c1ccc([N+](=O)[O-])o1` [Compound 62, 5-Nitro-furan-2-carboxylic acid[3-(4-benzyl-piperidin-1-yl)-phenyl]-amide], the MIC [2] was 12.5 µg/mL (≈ 30.8 µM).

`O=C(Nc1cccc(N2CCN(c3ccccn3)CC2)c1)c1ccc([N+](=O)[O-])o1` [Compound 63, 5-Nitro-furan-2-carboxylic acid[3-(4-pyridin-2-yl-piperazin-1-yl)-phenyl]-amide] gave an MIC [2] of 1.6 µg/mL (≈ 4.07 µM).

Work on `O=C(NCc1ccc(N2CCOCC2)cc1)c1ccc([N+](=O)[O-])o1` [Compound 64, 5-Nitro-furan-2-carboxylic acid 4-morpholin-4-yl-benzylamide] yielded an MIC [2] of 0.1 µg/mL (≈ 0.302 µM).

`O=C(NCc1ccc(N2CCN(Cc3ccccc3)CC2)cc1)c1ccc([N+](=O)[O-])o1` [Compound 66, 5-Nitro-furan-2-carboxy1ic acid 4-(4-benzyl-piperazin-1-yl)-benzylamide] was tested, and the MIC [3] was 0.006 µg/mL (≈ 0.0143 µM), the MIC [2] was 0.0062 µg/mL (≈ 0.0147 µM) and the “MIC activity compared with classical TB drugs (FIG. 1)” value (against H37Ra, in words) was “more active than isoniazid”.

For `O=C(NCc1ccc(N2CCC(Cc3ccccc3)CC2)cc1)c1ccc([N+](=O)[O-])o1` [Compound 67, 5-Nitro-furan-2-carboxylic acid 4-(4-benzyl-piperidin-1-yl)-benzylamide], the MIC [2] was under 0.1 µg/mL.

Work on `CN1CCN(c2cccc(CNC(=O)c3ccc([N+](=O)[O-])o3)c2)CC1` [Compound 68, 5-Nitro-furan-2-carboxylic acid 3-(4-methyl-piperazin-1-yl)-benzylamide] yielded an MIC [2] of 3.1 µg/mL (≈ 9 µM).

With `O=C(NCc1cccc(N2CCN(Cc3ccccc3)CC2)c1)c1ccc([N+](=O)[O-])o1` [Compound 69, 5-Nitro-furan-2-carboxylic acid 3-(4-benzyl-piperazin-1-yl)-benzylamide] the MIC [2] was under 0.1 µg/mL.

For `O=C(NCc1cccc(N2CCC(Cc3ccccc3)CC2)c1)c1ccc([N+](=O)[O-])o1` [Compound 70, 5-Nitro-furan-2-carboxylic acid 3-(4-benzyl-piperidin-1-yl)-benzylamide], the MIC [2] was 0.0062 µg/mL (≈ 0.0148 µM).

For `O=C(c1ccc([N+](=O)[O-])o1)N1Cc2ccccc2C1` [Compound 71], the MIC [2] was 0.78 µg/mL (≈ 3.02 µM).

With `O=C(c1ccc([N+](=O)[O-])o1)N1CCC(Cc2ccccc2)CC1` [Compound 72] the MIC [4] was 0.29 µg/mL (≈ 0.923 µM).

`O=C(c1ccc([N+](=O)[O-])o1)N1CCN(Cc2ccccc2)CC1` [Compound 73] gave an MIC [4] of 0.59 µg/mL (≈ 1.87 µM).

Work on `O=C(NCc1ccc2c(c1)OCO2)c1ccc([N+](=O)[O-])o1` [Compound 74] yielded an MIC [4] of 0.15 µg/mL (≈ 0.517 µM).

In the case of `COc1cc2c(cc1OC)CN(C(=O)c1ccc([N+](=O)[O-])o1)CC2` [Compound 75], the MIC [4] is reported as 0.15 µg/mL (≈ 0.451 µM).

`CN1CCN(C(=O)c2ccc([N+](=O)[O-])o2)CC1` [Compound 76] was tested, and the MIC [3] was 37.5 µg/mL (≈ 157 µM) and the MIC [4] was 37.5 µg/mL (≈ 157 µM).

`O=C(c1ccc([N+](=O)[O-])o1)N1CCN(c2ncccn2)CC1` [Compound 77] showed an MIC [5] of 0.025 µg/mL (≈ 0.0824 µM).

In the case of `CC(C)NC(=O)CN1CCN(C(=O)c2ccc([N+](=O)[O-])o2)CC1` [Compound 78], the MIC [4] is reported as 6.25 µg/mL (≈ 19.3 µM).

For `O=C(c1ccc([N+](=O)[O-])o1)N1CCC(O)(Cc2ccccc2)CC1` [Compound 79], the MIC [4] was 1.56 µg/mL (≈ 4.72 µM).

In the case of `O=C(c1ccc([N+](=O)[O-])o1)N1CCN(C2CCCCC2)CC1` [Compound 80], the MIC [4] is reported as 6.25 µg/mL (≈ 20.3 µM).

In the case of `O=C(c1ccc([N+](=O)[O-])o1)N1CCN(c2ncccn2)CC1` [Compound 81], the MIC [5] is reported as 0.1 µg/mL (≈ 0.33 µM).

`COc1ccccc1N1CCN(C(=O)c2ccc([N+](=O)[O-])o2)CC1` [Compound 82] showed an MIC [4] of 1.56 µg/mL (≈ 4.71 µM).

`O=C(c1ccc([N+](=O)[O-])o1)N1CCN(Cc2cccc(O)c2)CC1` [Compound 83] showed an MIC [4] of 0.8 µg/mL (≈ 2.41 µM).

With `O=C(c1ccc([N+](=O)[O-])o1)N1CCN(Cc2ccc(O)cc2)CC1` [Compound 84] the MIC [4] was 1.56 µg/mL (≈ 4.71 µM).

`COc1ccc(CN2CCN(C(=O)c3ccc([N+](=O)[O-])o3)CC2)cc1` [Compound 85] gave an MIC [4] of under 0.1 µg/mL.

`COc1cccc(CN2CCN(C(=O)c3ccc([N+](=O)[O-])o3)CC2)c1` [Compound 86] was tested, and the MIC [4] was 1.56 µg/mL (≈ 4.52 µM).

With `O=C(c1ccc([N+](=O)[O-])o1)N1CCN(Cc2cccc(OCc3ccccc3)c2)CC1` [Compound 87] the MIC [4] was 1.56 µg/mL (≈ 3.7 µM).

Compound `CCN(CC)c1ccc(CN2CCN(C(=O)c3ccc([N+](=O)[O-])o3)CC2)cc1` [Compound 88] has an MIC [4] of under 0.1 µg/mL.

With `COc1ccc(CN2CCN(C(=O)c3ccc([N+](=O)[O-])o3)CC2)c(OC)c1` [Compound 89] the MIC [4] was under 0.1 µg/mL.

In the case of `CC(=O)c1ccc(N2CCN(C(=O)c3ccc([N+](=O)[O-])o3)CC2)cc1` [Compound 91], the MIC [4] is reported as under 10.1 µg/mL.

With `O=C(NCc1ccc(N2CCSCC2)cc1)c1ccc([N+](=O)[O-])o1` [Compound 92, 5-Nitro-furan-2-carboxylic acid 4-thiomorpholin-4-yl-benzylamide] the MIC (Mycobacterium tuberculosis, H37RA, Table 6, M. tuberculosis H37Ra, MIC90) was 0.05 µg/mL (≈ 0.144 µM).
